Test results: US20240002936A1, “USE OF BRAIN ORGANOIDS AND SINGLE CELL GENOMICS TO UNDERSTAND AND TREAT NEURODEVELOPMENTAL AND NEUROPSYCHIATRIC DISORDERS” (President and Fellows of Harvard College, priority 2020, published 2024)

Tests used:
[1] = tested on: PGP1 SUV420H1 control and mutant organoids; assay: Calcium imaging of spontaneous neuronal activity in intact brain organoids; type: cell-based, human; conditions: 20 μM NBQX
[2] = tested on: human brain organoids; type: cell-based

SMILES	calcium activity after blockade of excitatory synapses with NBQX, SUV420H1 mutant organoids ([1]; PGP1 SUV420H1+/- mutant organoids)	calcium activity after blockade of excitatory synapses with NBQX, control organoids ([1]; PGP1 control organoids)	network bursting upon bath application of NBQX ([1]; four month organoids (128 d.i.v.))	trains of action potentials composing network bursting, sensitivity to TTX [2]
NS(=O)(=O)c1cccc2c1c([N+](=O)[O-])cc1[nH]c(=O)c(=O)[nH]c12 [NBQX, 2,3-dioxo-6-nitro-1,2,3,4-tetrahydrobenzo[f]quinoxaline-7-sulfonamide]	no calcium transients	residual uncorrelated activity	abolished	–
NC1=N[C@H](O)[C@H]2[C@H]3O[C@]4(O)O[C@@H]([C@@H](O)[C@@]2(N1)[C@@H]4O)[C@]3(O)CO [TTX, tetrodotoxin]	–	–	–	sensitive
